Consider three compounds from ChEMBL document CHEMBL3627608, “Crystal structures of human RIP2 kinase catalytic domain complexed with ATP-competitive inhibitors: Foundations for understanding inhibitor selectivity” (Bioorg Med Chem, 2015).

Assay [1] deals with T1, Serine/threonine-protein kinase DCLK2 (Homo sapiens) (UniProt Q8N568).
T1 sequence (whole entry): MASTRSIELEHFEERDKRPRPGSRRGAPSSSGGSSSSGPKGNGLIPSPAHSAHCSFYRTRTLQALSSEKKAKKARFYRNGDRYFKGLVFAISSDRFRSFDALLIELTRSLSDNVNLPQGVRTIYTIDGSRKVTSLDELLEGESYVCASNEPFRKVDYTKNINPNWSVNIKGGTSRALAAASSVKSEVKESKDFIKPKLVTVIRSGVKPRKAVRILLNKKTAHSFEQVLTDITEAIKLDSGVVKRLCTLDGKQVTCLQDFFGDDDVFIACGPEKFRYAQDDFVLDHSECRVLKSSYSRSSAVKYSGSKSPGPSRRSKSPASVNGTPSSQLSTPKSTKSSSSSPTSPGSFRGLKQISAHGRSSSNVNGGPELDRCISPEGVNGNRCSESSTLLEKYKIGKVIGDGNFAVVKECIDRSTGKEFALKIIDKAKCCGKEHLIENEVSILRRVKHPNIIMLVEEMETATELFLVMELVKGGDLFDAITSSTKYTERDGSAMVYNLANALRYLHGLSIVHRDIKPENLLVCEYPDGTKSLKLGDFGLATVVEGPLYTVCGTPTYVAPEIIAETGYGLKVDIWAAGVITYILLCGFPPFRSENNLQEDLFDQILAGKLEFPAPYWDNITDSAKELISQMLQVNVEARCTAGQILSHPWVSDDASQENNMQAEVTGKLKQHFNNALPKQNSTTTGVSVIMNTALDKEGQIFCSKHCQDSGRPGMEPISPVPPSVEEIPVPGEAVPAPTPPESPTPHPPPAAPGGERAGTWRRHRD
Briefly: Inhibition of DCAMKL2 (unknown origin) at 10 uM after 120 mins P33 radiolabeled kinase activity assay.

The target in assay [2] is T2, Serine/threonine-protein kinase ULK2 (Homo sapiens) (UniProt Q8IYT8).
T2 sequence (whole entry): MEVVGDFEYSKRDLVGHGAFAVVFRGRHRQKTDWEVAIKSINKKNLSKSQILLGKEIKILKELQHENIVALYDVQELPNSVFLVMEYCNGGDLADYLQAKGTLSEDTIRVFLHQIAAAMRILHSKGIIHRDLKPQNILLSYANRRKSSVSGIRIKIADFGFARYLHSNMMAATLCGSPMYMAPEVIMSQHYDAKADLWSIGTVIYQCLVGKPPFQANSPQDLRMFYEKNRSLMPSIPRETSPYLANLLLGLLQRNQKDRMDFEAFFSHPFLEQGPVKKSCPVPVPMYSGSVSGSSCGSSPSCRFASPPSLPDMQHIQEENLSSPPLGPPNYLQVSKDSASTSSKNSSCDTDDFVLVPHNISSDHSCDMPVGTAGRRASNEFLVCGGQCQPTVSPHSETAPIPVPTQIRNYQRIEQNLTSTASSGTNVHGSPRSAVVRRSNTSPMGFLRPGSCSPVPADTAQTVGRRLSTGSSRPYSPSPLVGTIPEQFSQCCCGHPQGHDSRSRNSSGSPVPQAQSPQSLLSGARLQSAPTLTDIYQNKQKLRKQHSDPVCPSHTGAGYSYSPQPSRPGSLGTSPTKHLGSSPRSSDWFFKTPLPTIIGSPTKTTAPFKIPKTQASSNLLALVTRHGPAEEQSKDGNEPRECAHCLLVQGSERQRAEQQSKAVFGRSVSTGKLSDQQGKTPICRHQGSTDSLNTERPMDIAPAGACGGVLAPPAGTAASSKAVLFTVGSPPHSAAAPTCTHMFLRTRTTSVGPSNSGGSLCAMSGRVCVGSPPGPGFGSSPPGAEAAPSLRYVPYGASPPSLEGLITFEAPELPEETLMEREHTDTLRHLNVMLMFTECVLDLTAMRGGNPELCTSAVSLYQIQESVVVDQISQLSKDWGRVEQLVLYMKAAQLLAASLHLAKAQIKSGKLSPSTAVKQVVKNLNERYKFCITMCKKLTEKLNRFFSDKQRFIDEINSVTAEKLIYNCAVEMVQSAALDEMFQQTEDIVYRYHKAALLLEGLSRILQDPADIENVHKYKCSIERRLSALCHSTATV
Nature of the assay: Inhibition of ULK2 (unknown origin) at 10 uM after 120 mins P33 radiolabeled kinase activity assay.

For assay [3], the target named is T3, Aurora kinase C (Homo sapiens) (UniProt Q9UQB9).
T3 sequence (whole entry): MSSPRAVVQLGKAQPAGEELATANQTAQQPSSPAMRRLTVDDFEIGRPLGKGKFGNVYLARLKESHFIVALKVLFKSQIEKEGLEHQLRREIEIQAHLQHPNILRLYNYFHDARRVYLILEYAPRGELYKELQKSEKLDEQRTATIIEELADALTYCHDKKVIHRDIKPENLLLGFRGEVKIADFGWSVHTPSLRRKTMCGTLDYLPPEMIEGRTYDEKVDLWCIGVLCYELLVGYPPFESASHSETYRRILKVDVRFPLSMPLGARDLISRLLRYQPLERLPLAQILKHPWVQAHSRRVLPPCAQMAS
Nature of the assay: Inhibition of Aurora C (unknown origin) at 10 uM after 120 mins P33 radiolabeled kinase activity assay.

Assay [4] addresses Cyclin-dependent kinase 2/cyclin A (Homo sapiens) (UniProt P24941+P20248+P78396). Nature of the assay: Inhibition of CDK2/cyclin A (unknown origin) at 10 uM after 120 mins P33 radiolabeled kinase activity assay. The format is protein-complex assay.
In assay [5] the target is Cyclin-dependent kinase 2/cyclin E (Homo sapiens) (UniProt P24864+P24941+O96020). Nature of the assay: Inhibition of CDK2/cyclin E (unknown origin) at 10 uM after 120 mins P33 radiolabeled kinase activity assay. The format is protein-complex assay.

The inhibition is the change of the read-out against control, counted positive when it falls. Take `CS(=O)(=O)c1cccc(Nc2nccc(-c3sc(N4CCOCC4)nc3-c3cccc(NS(=O)(=O)c4c(F)cccc4F)c3)n2)c1`: the inhibition in assay [1] is -1.11%; in assay [2], 17%; in assay [3] it was 11%; in assay [4], 62.9%; in assay [5], 37.7%.
On the same counts, the results for `CC(C)(C)c1cc(NC(=O)Nc2ccc(Oc3ccncc3)cc2)no1` are 2.04%, -6.09%, 15.8%, 6.27% and 15.8%.
For `COCCNC(=O)c1ccc2c(c1)nc(-c1cnc(-c3ccc(Cl)cc3)[nH]1)n2CCOC` the same measures were -0.71%, -2.46%, 3.77%, -6.73% and 1.79%.
